Experimental data published in article PMC4552745, “Novel Gallate Triphenylphosphonium Derivatives with Potent Antichagasic Activity” (PLoS ONE, 2015).
Each block holds one compound with its values, some of them ahead of it.

Tests used:
Leishmania brasiliensis = tested on: Leishmania brasiliensis; set-up: method as in PMID 25144225; settings: in vitro; cited from earlier work
T. cruzi epimastigotes = tested on: T. cruzi epimastigotes; set-up: method as in PMID 17673202; settings: cited from earlier work
Trypanosoma brucei = tested on: Trypanosoma brucei; set-up: method as in PMID 9657042, PMID 9491765; settings: Trypanosoma brucei models; cited from earlier work
Trypanosoma cruzi = tested on: Trypanosoma cruzi; set-up: method as in PMID 2121515; settings: blood contaminated with Trypanosoma cruzi; cited from earlier work
[1] = tested on: T. cruzi trypomastigotes (Y strain); test: MTT reduction viability assay on isolated trypomastigotes; assay type: cell-based, Trypanosoma cruzi; settings: for EC50: Trypanosoma cruzi, Y strain, 24 hours exposure, MTT assay, mean ± SD, read-out: EC50 T. cruzi trypomastigote; for Selectivity index (VERO/T. cruzi): ratio of EC50 VERO cells to EC50 T. cruzi trypomastigote; for potency relative to nifurtimox: trypomastigote viability, comparison of EC50
Description: (§1) Trypomastigotes (Y strain, DTU T. cruzi II) were obtained from infected VERO cells (Chlorocebus sabaeus kidney fibroblasts obtained from ATCC, ATCC number: CCL-81). The cells were exposed to trypomastigotes (Y strain) at a 3:1 density (trypomastigote:cell). The trypomastigotes were allowed to infect the cells for 24 h, and the supernatant was then extracted. The trypomastigotes were released from VERO cells at 4 days after infection. The parasites were harvested and collected for viability assays. The effect of the drugs on parasite viability was evaluated using the tetrazolium salt (MTT) reduction assay. […] Alternatively, VERO cells attached to the surface of 96-well plates were washed and incubated with MTT (5 mg/mL). After incubation for 4 h at 37°C, the generated formazan crystals were dissolved with 100 μL of 10% (w/v) sodium dodecyl sulfate (SDS) in 0.01 M HCl. The plates were then incubated overnight at 37°C, and the optical density (OD) was determined using a microplate reader (Labsystems Multiskan MS, Finland) at 570 nm. Under these conditions, the OD is directly proportional to the number of viable cells in each well [33, 34]. All of the experiments were performed at least three times. […] The data from each experiment were plotted using the formazan absorbance versus the log of the concentration, and the plot was fitted to the dose-response (four-parameters) equation using the software Graph Pad Prism V5.0, obtaining the EC50 value per drug and per experiment. The data are expressed as the mean ± DS of the EC50s obtained from each experiment.

VERO cells = test: MTT reduction viability assay on VERO cells; assay type: cell-based; settings: Chlorocebus sabaeus, 24 hours exposure, mean ± SD
Description: as §1, with “The” for “Trypomastigotes (Y strain, DTU T. cruzi II) were obtained from infected VERO cells (Chlorocebus sabaeus kidney fibroblasts obtained from ATCC, ATCC number: CCL-81). The cells were exposed to trypomastigotes (Y strain) at a 3:1 density (trypomastigote:cell). The trypomastigotes were allowed to infect the cells for 24 h, and the supernatant was then extracted. The trypomastigotes were released from VERO cells at 4 days after infection. The parasites were harvested and collected for viability assays. The”

[2] = tested on: T. cruzi in infected RAW 264.7 cells; test: Parasite DNA load by real-time PCR in infected RAW cells; assay type: cell-based, Trypanosoma cruzi; settings: infected RAW cells, 48 hours after treatment, Fig 4
Description: DNA from infected RAW cells (murine macrophages, ATCC number: TIB-71) was isolated using Wizard Genomic DNA Purification Kit (Promega, USA) following the manufacturer’s instructions. DNA was quantified through […] absorbance measurements using a Varioskan spectrophotometer (Thermo Scientific, USA). To evaluate the parasite DNA load, we used a TaqMan-Duplex system, as described previously. To amplify an 84-bp T. cruzi satellite DNA sequence, we used the following primers: TcSt 4-Fw (5’-[…]-3’) and TcSt 1-Rev (5’-[…]-3’) and the TcSt-1 probe (5’-FAM-[…]-BHQ-1-3’). As an endogenous control, we used the Mus-F (5’-[…]-3’) and Mus-R (5’-[…]-3’) primers coupled with the MM-1 probe (5’-HEX-AAAGCATCTGCCTCCG-BHQ-1-3’) to amplify a 67-bp Mus musculus GAPDH sequence. The primers and probes were designed using Primer Express 3.0 Software (Applied Biosystems, USA) and manufactured by Integrated DNA Technologies (Coralville, IA, USA). The PCR reactions were performed using an ABI7300 real-time thermocycler (Applied Biosystems, USA). […] ROX was used as a reference dye. For both TaqMan assays, the thermal cycle consisted of a polymerase activation step carried out at 95°C for 10 min (one cycle) and a two-step amplification phase: 95°C for 15 s and 55°C for 45 s (40 cycles). Fluorescence was measured at the end of each amplification cycle. The data were analyzed using 7300 System SDS software with the SDS relative quantitation plug-in (Applied Biosystems, USA). All of the data were analyzed by the 2^-∆∆CT method, comparing the CTs of the T. cruzi gene versus that of GAPDH as well as comparing all of the samples with the controls. The parasite load is expressed as the relative DNA load compared with the controls.

[3] = tested on: T. cruzi trypomastigotes (Y strain) mitochondrial permeability transition pore; test: Mitochondrial permeability transition pore opening (calcein AM / CoCl2); assay type: cell-based, Trypanosoma cruzi; settings: 5 μM, 1 hour, Fig 6B
Description: The opening of mitochondrial permeability transition pores was assessed using the calcein AM probe, adapting the method described by Huang et al (2014). Calcein-AM is a lipophilic probe that can enter the cell, including the mitochondria, and is then cleaved by cellular esterases, releasing the fluorescent probe calcein. T. cruzi trypomastigotes (Y strain, 5 x 10^6 parasites/mL) were stained with 100 nM calcein AM (Molecular Probes, Applied Biosytems, USA) and incubated at 37°C for 15 min in the presence of […] of CoCl2 to quench the cytosolic fluorescence of calcein. Then, the parasites were washed with PBS and resuspended in RPMI medium, without phenol red, supplemented with 0.3 mM of Ca^+2. The parasites were then seeded in 24-well plates and exposed to the different compounds (TPP^+-C8, TPP^+-C10, TPP^+-C11, and TPP^+-C12) at 1 or 5 μM for 1 hour. As a positive control, one group was exposed to ionomycin (0.5 μM). The samples were measured using a FACS Aria III flow cytometer (BD Biosciences, USA) with the 494/517 filter to detect calcein fluorescence. For every measurement, 5,000 events were recorded. The raw flow cytometry data were analyzed using FACSDiva 6.1 software (BD Biosciences). The results were analyzed using the median fluorescence intensity (MFI) from the frequency histograms. Thus, we used the median intensity of the control group (parasites incubated with calcein AM and CoCl2) to establish 100% of mitochondrial fluorescence, thereby establishing percent ratios between the treatment groups and the control.

Structure (SMILES): O=C(O[C@@H]1Cc2c(O)cc(O)cc2O[C@@H]1c1cc(O)c(O)c(O)c1)c1cc(O)c(O)c(O)c1 [EGCg, (-)-epigallocatechin 3-O-gallate]
- concentration at which the effect on viability is reached (Leishmania brasiliensis): over 60 μM
- concentration at which the antiproliferative effect is observed (T. cruzi epimastigotes): over 500 μM

Structure (SMILES): O=C(O)c1cc(O)c(O)c(O)c1 [GA, Gallic acid]
- EC50 (Trypanosoma brucei): > 30 µM
- concentration range at which effects are exerted (Trypanosoma cruzi): millimolar range

- EC50 [1]: 4.1 ± 0.9 µM
Structure (SMILES): CC1CS(=O)(=O)CCN1/N=C/c1ccc([N+](=O)[O-])o1 (stereo not drawn) [Nifurtimox, reference compound]
- Selectivity index (VERO/T. cruzi) [1]: > 24
- EC50 (VERO cells): > 100 µM

- EC50 [1]: 4.8 ± 0.9 µM
Structure (SMILES): O=C(OCCCCCCCC[P+](c1ccccc1)(c1ccccc1)c1ccccc1)c1cc(O)c(O)c(O)c1.[Br-] [TPP^+-C8, triphenyl(8-((3,4,5-trihydroxybenzoyl)oxy)-octyl) phosphonium bromide]
- parasite load (qPCR) [2]: the lowest concentrations of TPP^+-C8 increased the parasite load
- Selectivity index (VERO/T. cruzi) [1]: > 21
- potency relative to nifurtimox [1]: almost equal in potency to nifurtimox
- EC50 (VERO cells): > 100 µM

Structure (SMILES): O=C(OCCCCCCCCCCC[P+](c1ccccc1)(c1ccccc1)c1ccccc1)c1cc(O)c(O)c(O)c1.[Br-] [TPP^+-C11, triphenyl(11-((3,4,5-trihydroxybenzoyl)oxy)-undecyl) phosphonium bromide]
- parasite load (qPCR) [2]: reduced the parasite load in a concentration-dependent manner
- mitochondrial calcein fluorescence (median fluorescence intensity) [3]: 41 % of the control
- EC50 [1]: 9.2 ± 0.1 µM
- Selectivity index (VERO/T. cruzi) [1]: > 11
- potency relative to nifurtimox [1]: almost equal in potency to nifurtimox
- EC50 (VERO cells): > 100 µM
